For data set [1], the system named is oedème. In words: Clinical evaluation of occurrence and severity of oedema after injection of hyaluronic acid compositions. Further details: species or system patients. The following applies: human, in vivo. The method, then:
(§1) Deux types de composition aqueuse à base d'acide hyaluronique (concentration 20 mg/g) sont préparés.
(§2) Toutes les compositions sont issues d'un mélange monophasique tel que celui décrit dans la demande de brevet WO 2009/071697 au nom de la demanderesse, et comprennent du mannitol (concentration 35 mg/g).
(§3) Deux groupes A et B de 64 patients chacun sont formés (128 patients au total).
(§4) Le groupe B est injecté au niveau du sillon naso-génien au moyen de la composition aqueuse à base d'acide hyaluronique comprenant du mannitol et de la mépivacaïne

Data set [2] relates to ecchymose. Description: Clinical evaluation of occurrence and severity of ecchymosis after injection of hyaluronic acid compositions. Further details: species or system patients. The conditions noted are these: human, in vivo. The procedure: as §1, §2, §3, §4

As to mépïvacaïne, in data set [1], the “OEdème - Aucun” value is 63, the “OEdème - Léger ou modéré” value is given as 1 and the “OEdème - Sévère” value was 0. In data set [2], the “Ecchymose - Aucune” value amounted to 42, the “Ecchymose - Légère ou modérée” value was 22 and the “Ecchymose - Sévère” value came to 0.

Values taken from patent EP3315130A1, “HYALURONIC ACID COMPOSITION INCLUDING MEPIVACAINE” (Laboratoires Vivacy, priority 2016, dated 2018).
